This note sets out measurements from US11447484B2, “Cyclic compound having dopamine D3 receptor antagonistic effect” (Shionogi & Co., Ltd., priority 2018, dated 2022).

For series [1], the target named is P-gp (human MDR1-expressing cells) (Homo sapiens (Human), UniProt P08183). Kind of series: P-gp substrate test. Type of series: in vitro ADME. To be noted: efflux ratio (B→A/A→B) of MDR1-expressing cells compared with parent cells, Transwell monolayer. On the procedure:
Test Example 14: P-gp Substrate Test
The compound of the present invention was added to one side of Transwell (registered trademark, CORNING) where human MDR1-expressing cells or parent cells have been monolayer-cultured. The cells were reacted for a constant time. The membrane permeability coefficients from the apical side toward the basolateral side (A→B) and from the basolateral side toward the apical side (B→A) were calculated for the MDR1-expressing cells or the parent cells, and the efflux ratio (ER; ratio of the membrane permeability coefficients of B→A and A→B) values of the MDR1-expressing cells and the parent cells were calculated. The efflux ratio (ER) values of the MDR1-expressing cells and the parent cells were compared to confirm whether or not the compound of the present invention would be a P-gp substrate.

Series [2] concerns the target human recombinant D3 receptor (Homo sapiens (Human), UniProt P35462). The experiment in a line: Test of binding inhibition for dopamine D3 receptor. The settings on record: Jump-In HEK cell membranes, 2 nM [3H]-Methylspiperone, 120 min at 25° C.; read-out: hD3_Ki. As for the experimental part: Test Example 1: Test of Binding Inhibition for Dopamine D3 Receptor
(§1) (Experimental Conditions)
Cell membranes: Jump-In HEK cell membranes expressing human recombinant D3 receptor (4 μg/well)
(§2) Buffer solution: 50 mM Tris-HCl (35409-45, Nacalai Tesque) (pH 7.4) containing 120 mM NaCl (31320-05, Nacalai Tesque), 1 mM MgCl2.6H2O (20909-55, Nacalai Tesque), 5 mM KCl (28514-75, Nacalai Tesque) and 2 mM CaCl2 (067-31, NAKARAI CHEMICALS, LTD.)
Radioligand: (final concentration) 2 nM [^3H]-Methylspiperone ([^3H—N-methyl-]-Methylspiperone, NET-856, 83.8 Ci/mmol, PerkinElmer)
Non-specific ligand: (final concentration) 10 μM Butaclamol [(+)-Butaclamol Hydrochloride, D033, Sigma]
(§3) SPA beads solution: SPA beads [WGA PVT SPA Scintillation Beads, RPNQ0001 (500 mg), RPNQ0060 (2 g), PerkinElmer] (0.2 mg/well)
(§4) Incubation time and temperature: 120 min at 25° C.
(§5) Butaclamol or the compounds of the present invention were weighed and DMSO was added to make a 10 mM solution. This solution was diluted to each concentration.
[^3H]-Methylspiperone was weighed and the buffer solution was added to make a 6 nM solution.
(§6) SPA beads were weighed and stirred in water to make a 50 mg/mL solution. Using this solution, a mixture with the cell membranes was prepared.
(§7) 225 nL of the solutions of the non-specific ligand or the compounds of the present invention at each concentration (in case of vehicle, final concentration 0.3% DMSO) were added in each well of a 384-well white/clear bottom microplate (3706, Corning). Jump-In HEK Cell membranes (final reaction amount: 4 μg protein/well), the SPA beads solution (final reaction amount: 0.2 mg/well) and the buffer solution were mixed and the mixed solution was left still for 1 hour or more at 4° C. Then, 50 μL of the mixture was added to each well of the plate. In addition, 25 μL of 6 nM [^3H]-Methylspiperone (final concentration: 2 nM) was added to each well. The plate was sealed by putting TopSeal-A 96/384 well (6050185, PerkinElmer, Inc.) on the top of the plate, mixed using stirring deaerator (Well Tornado, FK-62, Sakaki-elc.) and incubated for 120 min at 25° C. After incubation, the radioactivity of [^3H]-Methylspiperone which was bonded to D3 receptor was determined by liquid scintillation counter (1450 Microbeta, PerkinElmer) in each well. Non-specific binding was calculated based on the radioactivity of [^3H]-Methylspiperone in the presence of 10 μM non-labeled Butaclamol. The total binding was calculated using the radioactivity of [^3H]-Methylspiperone in the absence of the compounds of the present invention (vehicle). The Ki values were calculated from dose-response curves.
(§8) Binding activities of the compounds of the present invention were calculated from the following Binding Inhibition Rate (%): Inhibition Rate(%)=[1−(c−a)/(b−a)]×100 • a: Average cpm of non-specific binding • b: Average cpm of total binding • c: Cpm in the presence of each test compound

Series [3] deals with human recombinant D2 receptor (Homo sapiens (Human), UniProt P14416). The experiment in a line: Test of binding inhibition for dopamine D2 receptor. To be noted: Jump-In HEK cell membranes, 1.2 nM [3H]-Methylspiperone, 120 min at 25° C.; read-out: hD2_Ki. As for the experimental part: Test Example 2: Test of Binding Inhibition for Dopamine D2 Receptor
Chain of human recombinant D2 receptor (P14416 whole entry): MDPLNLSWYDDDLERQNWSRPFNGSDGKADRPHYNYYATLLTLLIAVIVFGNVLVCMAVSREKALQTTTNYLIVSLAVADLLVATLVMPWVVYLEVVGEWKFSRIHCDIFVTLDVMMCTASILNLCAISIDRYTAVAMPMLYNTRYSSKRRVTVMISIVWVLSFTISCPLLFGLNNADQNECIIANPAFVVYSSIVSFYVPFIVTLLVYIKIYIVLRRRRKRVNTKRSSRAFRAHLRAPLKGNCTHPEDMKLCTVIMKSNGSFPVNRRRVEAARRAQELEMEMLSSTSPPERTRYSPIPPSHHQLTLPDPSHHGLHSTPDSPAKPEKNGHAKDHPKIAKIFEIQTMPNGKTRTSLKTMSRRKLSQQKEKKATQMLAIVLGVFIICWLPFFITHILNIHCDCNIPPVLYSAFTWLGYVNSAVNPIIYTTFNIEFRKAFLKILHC
as §1
Cell membranes: Jump-In HEK cell membranes expressing human recombinant D2 receptor (2 μg/well)
as §2
Radioligand: (final concentration) 1.2 nM [^3H]-Methylspiperone ([^3H—N-methyl-]-Methylspiperone, NET-856, 83.8 Ci/mmol, PerkinElmer)
Non-specific ligand: (final concentration) 10 μM Butaclamol [(+)-Butaclamol Hydrochloride, D033; Sigma]
as §3, §4, §5
[^3H]-Methylspiperone was weighed and the buffer solution was added to make a 3.6 nM solution.
as §6
as §7, with “amount: 2” for “amount: 4”, “SPA bead” for “SPA beads”, “of 3.6” for “of 6”, “concentration: 1.2” for “concentration: 2”, “(6050185, PerkinElmer)” for “(6050185, PerkinElmer, Inc.)”, “to D2” for “to D3”
as §8

SMILES strings stand for the structures.

Chain of P-gp (human MDR1-expressing cells) (P08183 whole entry): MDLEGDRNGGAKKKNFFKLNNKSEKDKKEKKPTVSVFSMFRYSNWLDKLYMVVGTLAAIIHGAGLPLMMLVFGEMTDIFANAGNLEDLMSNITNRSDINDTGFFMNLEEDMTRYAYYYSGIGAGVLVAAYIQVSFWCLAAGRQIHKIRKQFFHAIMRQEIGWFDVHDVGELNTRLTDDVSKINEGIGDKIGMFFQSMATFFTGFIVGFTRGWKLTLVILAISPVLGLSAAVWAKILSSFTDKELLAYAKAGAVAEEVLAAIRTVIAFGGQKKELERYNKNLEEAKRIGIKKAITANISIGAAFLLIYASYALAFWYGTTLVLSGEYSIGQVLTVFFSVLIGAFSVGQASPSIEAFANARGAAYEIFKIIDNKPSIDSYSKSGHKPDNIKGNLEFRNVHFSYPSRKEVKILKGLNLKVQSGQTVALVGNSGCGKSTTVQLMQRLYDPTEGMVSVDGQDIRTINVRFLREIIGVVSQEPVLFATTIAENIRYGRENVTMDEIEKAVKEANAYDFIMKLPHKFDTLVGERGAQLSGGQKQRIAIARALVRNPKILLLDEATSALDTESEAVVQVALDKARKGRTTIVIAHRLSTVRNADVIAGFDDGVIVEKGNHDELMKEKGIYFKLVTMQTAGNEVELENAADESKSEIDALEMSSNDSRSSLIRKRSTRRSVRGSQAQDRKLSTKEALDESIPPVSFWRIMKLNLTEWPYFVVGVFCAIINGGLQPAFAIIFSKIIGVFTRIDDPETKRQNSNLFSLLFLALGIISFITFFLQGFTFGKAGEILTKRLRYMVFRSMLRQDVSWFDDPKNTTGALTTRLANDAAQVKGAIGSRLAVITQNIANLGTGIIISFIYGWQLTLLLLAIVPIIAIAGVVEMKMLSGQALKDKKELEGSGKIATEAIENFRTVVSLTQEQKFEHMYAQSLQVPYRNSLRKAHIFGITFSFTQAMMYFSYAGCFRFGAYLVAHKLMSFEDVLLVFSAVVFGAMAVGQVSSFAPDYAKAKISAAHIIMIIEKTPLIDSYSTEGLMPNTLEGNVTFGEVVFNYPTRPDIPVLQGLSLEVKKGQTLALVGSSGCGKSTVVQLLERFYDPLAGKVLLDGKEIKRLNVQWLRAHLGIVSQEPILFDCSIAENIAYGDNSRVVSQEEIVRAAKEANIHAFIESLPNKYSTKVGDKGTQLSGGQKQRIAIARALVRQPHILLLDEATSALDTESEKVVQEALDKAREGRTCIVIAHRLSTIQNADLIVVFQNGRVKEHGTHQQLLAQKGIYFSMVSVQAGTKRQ
Chain of human recombinant D3 receptor (P35462 whole entry): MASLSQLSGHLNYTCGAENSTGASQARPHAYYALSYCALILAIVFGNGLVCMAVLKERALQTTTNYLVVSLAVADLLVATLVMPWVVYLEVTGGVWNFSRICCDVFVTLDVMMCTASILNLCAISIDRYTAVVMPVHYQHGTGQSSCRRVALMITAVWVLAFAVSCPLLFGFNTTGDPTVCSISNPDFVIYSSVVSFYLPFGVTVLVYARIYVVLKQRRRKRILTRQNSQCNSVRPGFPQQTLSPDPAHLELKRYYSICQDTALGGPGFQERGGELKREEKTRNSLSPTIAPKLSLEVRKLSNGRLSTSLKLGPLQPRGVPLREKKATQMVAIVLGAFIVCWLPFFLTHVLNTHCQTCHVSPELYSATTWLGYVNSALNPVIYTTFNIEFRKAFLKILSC

As to `CCc1cc([C@]23C[C@H]2CN(CC[C@H]2CC[C@H](NC(=O)Cc4cnc(C)o4)CC2)C3)no1` [Compound I-052], the “P-gp ER ratio” value in series [1] was 2.4. Besides, the Ki in series [2] amounted to 0.58 nM; in series [3], 920 nM.
For the compound `Cc1ncc(OCC(=O)N[C@H]2CC[C@H](CCN3C[C@@H]4C[C@]4(c4cc(C(C)(F)F)on4)C3)CC2)cn1` [Compound I-046], the “P-gp ER ratio” value in series [1] worked out at 1.9. Also, the Ki came to 0.2 nM in series [2] and 330 nM in series [3].
Take `CCc1cc(C23CC2CN(CC[C@H]2CC[C@H](NC(=O)c4cccc5nn(C)cc45)CC2)C3)no1` (some centres unmarked) [Compound I-034]: the “P-gp ER ratio” value in series [1] is given as 1.3. Further, the Ki in series [2] came out at 0.71 nM; in series [3], 730 nM.
For the compound `CCc1cc([C@]23C[C@H]2CN(CC[C@H]2CC[C@H](NC(=O)Cc4cnn(C)n4)CC2)C3)no1` [Compound I-053], in series [1], the “P-gp ER ratio” value stood at 1.9. For the same compound, the values for the Ki in series [2] and in series [3] were 0.48 nM and 1100 nM, respectively.
As to `CCc1cc([C@]23C[C@H]2CN(CC[C@H]2CC[C@H](NC(=O)/C=C/c4cnc(C)nc4)CC2)C3)no1` [Compound I-051], the Ki in series [2] came out at 0.3 nM; in series [3], 380 nM.
Take `CCC(F)(F)c1conc1C1CCN(CC[C@H]2CC[C@H](NC(=O)Cc3nnc(C)s3)CC2)CC1` [Compound I-015]: the Ki is 0.13 nM in series [2] and 67 nM in series [3].
Take `Cc1cc(CC(=O)N[C@H]2CC[C@H](CCN3C[C@@H]4C[C@]4(c4cc(C(C)(F)F)on4)C3)CC2)on1` [Compound I-042]: the Ki in series [2] came to 0.061 nM; in series [3], 1300 nM.
For `Cn1cc(CC(=O)N[C@H]2CC[C@H](CCN3C[C@@H]4C[C@]4(c4cc(C(C)(F)F)on4)C3)CC2)cn1` [Compound I-043], the Ki in series [2] came out at 0.45 nM; in series [3], 270 nM.
As for `O=C(N[C@H]1CC[C@H](CCN2CCC(c3ccnn3-c3ccccc3)CC2)CC1)c1cccc2ncccc12` [Compound I-006], the Ki in series [2] worked out at 4 nM; in series [3], 1100 nM.
In the same order, the values of `CCc1cc([C@]23C[C@H]2CN(CC[C@H]2CC[C@H](NC(=O)c4cccn5nccc45)CC2)C3)no1` [Compound I-057] are 0.47 nM and 230 nM.
`Cc1ncc(CC(=O)N[C@H]2CC[C@H](CCN3C[C@@H]4C[C@]4(c4cc(C(C)(F)F)on4)C3)CC2)o1` [Compound I-041]: the Ki stood at 0.28 nM in series [2] and 240 nM in series [3].
